Measured values: US7070965B1, “Small molecule anticancer compounds and related production process” (priority 1998, dated 2006)

Columns and labels:
[1] = test system: normal human peripheral blood lymphocytes (PBL); experiment: Cytotoxicity on normal cells, viability assessment; type: cell-based; details: at concentrations lethal to tumor cells
Description: PBLs, K-562 and SNU-1 cells in suspension culture were seeded in 96-well microplates at a density of 5×10^4 cells/well for K-562 and SNU-1, and 1×10^5 cells/well for PBLs. iso-C15 were diluted with medium to provide different concentrations (0, 1.5, 3.0, 6.0, 15.0, 30.0, and 60.0 μg/ml). Both untreated and solvent (NaOH and Tween 80) treated cells served as controls. After incubation for 48 hours at 37° C., cells were collected directly from the wells for viability assessment.
The ID50, ID75 and ID90 were determined in duplicate in every set of experiments, and each experiment was repeated three times under identical conditions. ID50, ID75 and ID90 were defined as the concentration of iso-C15 required to kill 50, 75 or 90%, respectively, of cells (compared with that in untreated cells) and computed using CalcuSyn for Windows software (Biosoft, Cambridge UK) based on Median Effect method by Dr. T. C. Chou.

K562 leukemia cell line = experiment: DNA fragmentation gel electrophoresis; type: cell-based, human; details: 60 μg/ml
Description: The gel electrophoresis assay was used for the detection of apoptosis-specific internucleosonal DNA degradation in these cells. […] After centrifuged at 14,000 RPM for 20 min at 4° C., the supernatants were transferred to new tubes and treated with RNase and proteinase K respectively. Supernatants were extracted with phenol/chloroform twice, and fragmented DNA was precipitated in ethanol. Samples were electrophoresed in a 1.5% agarose gel in 1× TAE buffer. The gel was stained with ethidium bromide and destained with distilled water. The fragmented DNA was then visualized under UV light.

H1688 cancer cells = experiment: In situ cell death detection, POD; type: cell-based, human; details: 60 μg/ml, 8 hours
Description: (§1) In Situ Cell Death Detection Kit, POD (Mannheim Boehringer GmbH) was used to detect the individual apoptotic cells. Cleavage of genomic DNA during apoptosis may yield double-stranded, low molecular weight DNA fragments as well as single strand breaks in high molecular weight DNA. Those DNA strand breaks can be identified by labeling free 3′-OH termini with modified nucleotides in an enzymatic reaction. In this kit terminal deoxynucleotidyl transferase (TdT) is used to label free 3′-OH ends in genomic DNA with fluorescein-dUTP. The incorporated fluorescein is visualized under fluorescence microscope directly. The incorporated fluorescein can also bind to anti-fluorescein antibody POD and be detected by substrate reaction. Stained cells can be analyzed under light microscope.
(§2) Four human tumor cell lines, K-562 human leukemia, SNU-1 human gastric carcinoma cell lines, MCF-7 human breast adenocarcinoma and H1688 human small cell lung carcinoma cell lines, as well as Human PBLs were treated with iso-C15 (60 μg/ml).
(§3) H1688, K-562 and DU145 human cancer cells and normal human PBLs were added with POD and incubated 30 min at 37° C., washed three times with PBS, then reacted with substrate AEC and incubated for 10 min at room temperature. The cells were analyzed under light microscope. […] It is evidenced that iso-C15 induces apoptosis of cancer cells but not normal human cells.

K-562 leukemia cells = experiment: In situ cell death detection, POD; type: cell-based, human; details: 60 μg/ml, 2 and 4 hours
Description: as §1, §2, §3

[2] = test system: DMBA-induced mammary cancer; experiment: Chemoprevention of DMBA-induced mammary carcinogenesis in rats; type: in vivo, Sprague-Dawley rats; details: 0.5 ml of 0.7% solution intragastric, five times a week, twenty weeks after DMBA
Description: 13-methyltetradecanoic acid (iso-C15) was prepared by dissolving in NaOH solution and then in 0.35% Tween 80 with pH 7.5.
Fifty female Sprague-Dawley rats were maintained on laboratory chow. At 50 days of age, rats were given a single dose (5 mg) of DMBA (Sigma Chemical Co., St. Louis. Mo.) via an intragastric tube. Seven days after DMBA administration, the rats were randomly divided into two groups of 25. Each rat in the control group was given 0.5 ml of 0.35% Tween 80 five times a week via an intragastric tube throughout the experiment, while each in the test group was given 0.5 ml iso-C15 solution of concentration 0.7%, five times a week. Food and water were available ad libitum. Twenty weeks after DMBA administration, all rats were scarified, and all palpable tumors were removed.

DU145 cancer cells = experiment: In situ cell death detection, POD; type: cell-based, human; details: 60 μg/ml, 8 hours
Description: as §1, §3

[3] = test system: Human leukemia cell line K562; experiment: MTT assay, inhibition of cell growth; type: cell-based; details: for Inhibitory rate (%) on cell growth: 24 hours, dissolved with 10% ethanol, listed as extracted iso-C15
Description: (§4) MTT assay was performed to test the cytotoxicity. The K562 and SGC7901 cells were maintained in exponential growth in RPMI 1640 medium supplemented with 15% heat-inactivated newborn calf serum. The cells were plated at a density of 2×10^4 cells/100 μl medium/well into 96-well plate with medium containing samples in five final concentrations (7.5, 15, 30, 60 and 90 μg/ml) for iso-C15 (either synthesized or extracted) and one final concentration (30 μg/ml) for the others. The media in control wells contained no samples. The cells were incubated at 37° C. in a highly humidified incubator under 5% CO2 atmosphere for 24 hours. The supernatant was removed by fast inversion of the plate. 20 μl of 5 mg/ml MTT solution were added into each well. Incubation was continued for 4 hours. DMSO 100 μl/well was added and the plate was vibrated for 10 minutes. A570nm was read at the Immunoreader BioTek EL311S.
(§5) The inhibition rate (%)=1−(mean A570nm in test wells/mean A570nm in control wells)

[4] = test system: human gastric cancer cell line SGC7901; experiment: MTT assay, inhibition of cell growth; type: cell-based; details: dissolved with 10% ethanol; for Inhibitory rate (%) on cell growth: 24 hours, listed as extracted iso-C15
Description: as §4, §5

Compound: CC(C)CCCCCCCCCCCC(=O)O [iso-C15, 13-methyltetradecanoic acid]
- toxicity against normal human peripheral blood lymphocytes [1]: not toxic against normal human peripheral blood lymphocytes
- apoptotic DNA fragmentation (K562 leukemia cell line): fragmented low molecular weight DNA bands were seen at 2 hour and were prominent at 8 hour treated
- apoptotic cells stained, POD (H1688 cancer cells): apoptotic H1688 cancer cells (stained red) were found
- apoptotic cells stained, POD (K-562 leukemia cells): some cells started apoptosis (stained red) 2 hours after treatment
- No. of rats with tumors ([2]; 25 rats): 3
- Mean tumor weight [2]: 0.8 ± 1.3 g
- No. of tumors [2]: 4
- No. of tumors per rat [2]: 0.2 ± 0.1
- No. of tumors/tumor bearing rat [2]: 1.3 ± 0.5
- tumor incidence [2]: 12%
- apoptotic cells stained, POD (DU145 cancer cells): Some stained apoptotic DU145 cancer cells were shown
- Inhibitory rate (%) on cell growth ([3]; 7.5 μg/ml): 27.1%
- Inhibitory rate (%) on cell growth ([3]; 15 μg/ml): 51.2%
- Inhibitory rate (%) on cell growth ([3]; 30 μg/ml): 72.2%
- Inhibitory rate (%) on cell growth ([3]; 60 μg/ml): 83.7%
- Inhibitory rate (%) on cell growth ([3]; 90 μg/ml): 87.2%
- inhibition at 7.5 µg/mL ([3]; Homo sapiens, K562, 24 h, read-out: Inhibitory rate (%) on cell growth, 7.5 μg/ml, dissolved with 10% ethanol): 26.2%
- inhibition at 15 µg/mL ([3]; Homo sapiens, K562, 24 h, read-out: Inhibitory rate (%) on cell growth, 15 μg/ml, dissolved with 10% ethanol): 50.1%
- inhibition at 30 µg/mL ([3]; Homo sapiens, K562, 24 h, read-out: Inhibitory rate (%) on cell growth, 30 μg/ml, dissolved with 10% ethanol): 71.6%
- inhibition at 60 µg/mL ([3]; Homo sapiens, K562, 24 h, read-out: Inhibitory rate (%) on cell growth, 60 μg/ml, dissolved with 10% ethanol): 83.1%
- inhibition at 90 µg/mL ([3]; Homo sapiens, K562, 24 h, read-out: Inhibitory rate (%) on cell growth, 90 μg/ml, dissolved with 10% ethanol): 85.3%
- Inhibitory rate (%) on cell growth ([4]; 15 μg/ml): 28.1%
- Inhibitory rate (%) on cell growth ([4]; 30 μg/ml): 51.2%
- Inhibitory rate (%) on cell growth ([4]; 60 μg/ml): 62.1%
- Inhibitory rate (%) on cell growth ([4]; 90 μg/ml): 68.8%
- inhibition at 15 µg/mL ([4]; Homo sapiens, SGC-7901, 24 h, 15 μg/ml, read-out: Inhibitory rate (%) on cell growth): 27.5%
- inhibition at 30 µg/mL ([4]; Homo sapiens, SGC-7901, 24 h, 30 μg/ml, read-out: Inhibitory rate (%) on cell growth): 50.5%
- inhibition at 60 µg/mL ([4]; Homo sapiens, SGC-7901, 24 h, 60 μg/ml, read-out: Inhibitory rate (%) on cell growth): 63.1%
- inhibition at 90 µg/mL ([4]; Homo sapiens, SGC-7901, 24 h, 90 μg/ml, read-out: Inhibitory rate (%) on cell growth): 68.4%
